{"source": "paper PMC9841529", "about": "(ACS Infectious Diseases, 2022)", "key": {"[1]": {"tested_on": "B. anthracis Sterne 7702 bacilli (wild-type)"}, "[2]": {"tested_on": "B. anthracis Sterne 7702 ΔftsX bacilli"}, "[3]": {"tested_on": "CXCR3-expressing human T-cells", "format": "cell-based"}, "[4]": {"tested_on": "B. anthracis Sterne 7702 spores", "format": "cell-based, Bacillus anthracis"}, "[5]": {"tested_on": "K. pneumoniae BA2664 (mutated pmrB)", "format": "cell-based, Klebsiella pneumoniae"}, "[6]": {"tested_on": "mcr-1-positive E. coli FI-4531, E. coli J53 and K. pneumoniae 13883", "format": "cell-based, Escherichia coli; Klebsiella pneumoniae"}, "[7]": {"tested_on": "K. pneumoniae MS84 (disrupted mgrB)", "format": "cell-based, Klebsiella pneumoniae"}, "N. gonorrhoeae FA1090": {"tested_on": "N. gonorrhoeae FA1090", "format": "cell-based, Neisseria gonorrhoeae"}, "A. baumannii AR0304": {"tested_on": "A. baumannii AR0304", "format": "cell-based, Acinetobacter baumannii"}, "E. faecium AR0575": {"tested_on": "E. faecium AR0575", "format": "cell-based, Enterococcus faecium"}, "N. gonorrhoeae H041": {"tested_on": "N. gonorrhoeae H041", "format": "cell-based, Neisseria gonorrhoeae"}, "S. aureus LAC": {"tested_on": "S. aureus LAC", "format": "cell-based, Staphylococcus aureus"}, "E. cloacae BL36213": {"tested_on": "E. cloacae BL36213", "format": "cell-based, Enterobacter cloacae"}, "[8]": {"conditions": "pH 7.4"}}, "note": "Entries after “also recorded” stand apart in the source; their conditions may differ. Read-outs that look alike come from different tables or passages of the source. Residues, ends and D or L forms follow the SMILES beside them.", "data": [{"compound": "CC[C@H](C)[C@H](NC(=O)[C@H](CO)NC(=O)[C@@H](NC(=O)[C@H](CS)NC(=O)[C@@H](NC(=O)[C@H](CS)NC(=O)[C@H](CCCNC(=N)N)NC(=O)[C@@H](NC(=O)[C@@H](NC(=O)[C@H](CCCNC(=N)N)NC(=O)[C@H](CO)NC(=O)[C@H](CC(C)C)NC(=O)[C@@H]1CCCN1C(=O)[C@@H](N)C(C)C)[C@@H](C)O)C(C)C)[C@@H](C)O)[C@@H](C)CC)C(N)=O", "note": "[P1] (H-VPLSRTVRCTCISI-NH2)", "values": [{"measurement": "EC50", "setting": "[1]; Sterne 7702 bacilli (wild-type, 4 h)", "value": "18.1 ± 0.3", "unit": "µM"}, {"measurement": "percentage of dead cells", "setting": "primary human T-cells", "value": "less than 5%"}, {"measurement": "EC50", "setting": "[2]; Sterne 7702 ΔftsX bacilli, 4 h", "value": "53.1 ± 0.8", "unit": "µM"}, {"measurement": "EC50", "setting": "K. pneumoniae BL13802; BL13802, 2 h", "value": "13.4 ± 1.2", "unit": "µM"}, {"measurement": "hemolysis", "setting": "human RBCs", "value": "negligible hemolysis"}]}, {"compound": "CXCL10", "values": [{"measurement": "chemotactic index (CI)", "setting": "[3]", "value": "approximately 6"}]}, {"compound": "EIIATMKKKGEKRCL [P5]", "values": [{"measurement": "decrease of heat-treated cfu counts versus initial spore inoculum", "setting": "[4]", "value": "~200", "unit": "fold"}, {"measurement": "increase of cfu counts without heat treatment versus initial spore inoculum", "setting": "[4]", "value": "more than 10 fold"}, {"measurement": "T-cell migration", "setting": "[3]", "value": "did not elicit T-cell migration"}, {"measurement": "percentage of dead cells", "setting": "primary human T-cells", "value": "less than 5%"}, {"measurement": "hemolysis", "setting": "human RBCs", "value": "negligible hemolysis"}]}, {"compound": "KNLLKAVSKERSKRSP [P8]", "values": [{"measurement": "% survival (cfu/ml)", "setting": "K. pneumoniae BL13802", "value": "efficiently killed K. pneumoniae"}]}, {"compound": "Melittin [reference compound]", "values": [{"measurement": "hemolysis", "setting": "human RBCs", "value": "high levels of hemolysis"}]}, {"compound": "PESKAIK(S5A)LLK(S5A)VSKERSKRSP (sidechain bridge or staple) [stapled peptide P9]", "values": [{"measurement": "bacterial killing (in words)", "setting": "[5]", "value": "killed colistin-resistant K. pneumoniae"}, {"measurement": "viability of ungerminated spores compared to the initial inoculum", "setting": "[4]", "value": "modest reductions in the viability of ungerminated spores"}, {"measurement": "bacterial killing (in words)", "setting": "[6]", "value": "killed colistin-resistant K. pneumoniae and E. coli strains"}, {"measurement": "EC50", "setting": "[1]", "value": "8.5 ± 0.9", "unit": "µM"}, {"measurement": "EC50", "setting": "[1]; read-out: EC50 values (as stated in running text)", "value": "4 to 5", "unit": "µM"}, {"measurement": "bacterial killing (in words)", "setting": "[7]", "value": "killed colistin-resistant K. pneumoniae"}, {"measurement": "bacterial killing (in words)", "setting": "N. gonorrhoeae FA1090", "value": "particularly susceptible"}, {"measurement": "bacterial killing (in words)", "setting": "A. baumannii AR0304", "value": "particularly susceptible"}, {"measurement": "bacterial killing (in words)", "setting": "E. faecium AR0575", "value": "particularly susceptible"}, {"measurement": "bacterial killing (in words)", "setting": "N. gonorrhoeae H041", "value": "particularly susceptible"}, {"measurement": "cytotoxic effects (dead cells)", "setting": "primary human T-cells", "value": "greatly reduced"}, {"measurement": "percentage of dead cells", "setting": "primary human T-cells", "value": "~45", "unit": "%"}, {"measurement": "EC50", "setting": "[2]", "value": "9.6 ± 1", "unit": "µM"}, {"measurement": "bacterial killing (in words)", "setting": "S. aureus LAC", "value": "particularly susceptible"}, {"measurement": "hemolysis", "setting": "human RBCs", "value": "neither pre-stapled nor stapled peptide P9 exerted hemolytic effects"}]}, {"compound": "PESKAIK(S5A)LLK(S5A)VSKERSKRSP [pre-stapled peptide P9]", "values": [{"measurement": "EC50", "setting": "[1]", "value": "4.3 ± 0.4", "unit": "µM"}, {"measurement": "EC50", "setting": "[2]", "value": "5 ± 1.2", "unit": "µM"}]}, {"compound": "PESKAIKNLLKAVSKERSKRSP [P9]", "values": [{"measurement": "bacterial killing (in words)", "setting": "[5]", "value": "but not peptide P9"}, {"measurement": "bacterial killing (in words)", "setting": "[6]", "value": "undiminished"}, {"measurement": "bacterial killing (in words)", "setting": "[7]", "value": "but not peptide P9"}, {"measurement": "bacterial killing (in words)", "setting": "N. gonorrhoeae FA1090", "value": "reductions in bacterial viability were more modest"}, {"measurement": "bacterial killing (in words)", "setting": "E. faecium AR0575", "value": "lost its capacity to kill any of the isolates examined; also recorded: little to no effect on the viability"}, {"measurement": "bacterial killing (in words)", "setting": "N. gonorrhoeae H041", "value": "reductions in bacterial viability were more modest"}, {"measurement": "bacterial killing (in words)", "setting": "E. cloacae BL36213", "value": "lost its capacity to kill any of the isolates examined; also recorded: except E. cloacae"}, {"measurement": "secondary structure content: antiparallel β-sheet", "setting": "[8]", "value": 12, "unit": "%"}, {"measurement": "secondary structure content: turn", "setting": "[8]", "value": 18, "unit": "%"}, {"measurement": "secondary structure content: α-helix", "setting": "[8]", "value": 35, "unit": "%"}, {"measurement": "percentage of dead cells", "setting": "primary human T-cells", "value": "less than 5%"}, {"measurement": "bacterial killing (in words)", "setting": "S. aureus LAC", "value": "lost its capacity to kill any of the isolates examined; also recorded: little to no effect on the viability"}, {"measurement": "% survival (cfu/ml)", "setting": "K. pneumoniae BL13802", "value": "efficiently killed K. pneumoniae"}, {"measurement": "bacterial survival (RFU)", "setting": "K. pneumoniae BL13802", "value": "abolished the ability"}, {"measurement": "hemolysis", "setting": "human RBCs", "value": "negligible hemolysis"}]}, {"compound": "TISVCPTLRRIVSC [P1scram]", "values": [{"measurement": "bacterial viability, % survival (RFU)", "setting": "[1]", "value": "abolished antimicrobial activity"}]}]}
